This is an account of results in ChEMBL document CHEMBL6178004, “Novel Azaindole Compounds as Phosphodiesterase 4B Inhibitors for Treating Immune-Inflammatory Diseases or Disorders” (ACS Med Chem Lett, 2025).

Broadly, the IC50 is the concentration that inhibits the measured activity by half.

Experiment [1] has as its target 3',5'-cyclic-AMP phosphodiesterase 4B (Homo sapiens, UniProt Q07343). As to the kind of experiment: Inhibition of human recombinant PDE4B1 using [3H]cAMP as substrate incubated for 30 mins by scintillation proximity assay.
In experiment [2] the target is 3',5'-cyclic-AMP phosphodiesterase 4D (Homo sapiens, UniProt Q08499). The experiment is described as follows: Inhibition of human recombinant PDE4D3 using [3H]cAMP as substrate incubated for 30 mins by scintillation proximity assay. Format: single protein. (In general: Scintillation proximity formats need no separation of bound from free tracer.)
3',5'-cyclic-AMP phosphodiesterase 4D, sequence (Q08499 whole entry): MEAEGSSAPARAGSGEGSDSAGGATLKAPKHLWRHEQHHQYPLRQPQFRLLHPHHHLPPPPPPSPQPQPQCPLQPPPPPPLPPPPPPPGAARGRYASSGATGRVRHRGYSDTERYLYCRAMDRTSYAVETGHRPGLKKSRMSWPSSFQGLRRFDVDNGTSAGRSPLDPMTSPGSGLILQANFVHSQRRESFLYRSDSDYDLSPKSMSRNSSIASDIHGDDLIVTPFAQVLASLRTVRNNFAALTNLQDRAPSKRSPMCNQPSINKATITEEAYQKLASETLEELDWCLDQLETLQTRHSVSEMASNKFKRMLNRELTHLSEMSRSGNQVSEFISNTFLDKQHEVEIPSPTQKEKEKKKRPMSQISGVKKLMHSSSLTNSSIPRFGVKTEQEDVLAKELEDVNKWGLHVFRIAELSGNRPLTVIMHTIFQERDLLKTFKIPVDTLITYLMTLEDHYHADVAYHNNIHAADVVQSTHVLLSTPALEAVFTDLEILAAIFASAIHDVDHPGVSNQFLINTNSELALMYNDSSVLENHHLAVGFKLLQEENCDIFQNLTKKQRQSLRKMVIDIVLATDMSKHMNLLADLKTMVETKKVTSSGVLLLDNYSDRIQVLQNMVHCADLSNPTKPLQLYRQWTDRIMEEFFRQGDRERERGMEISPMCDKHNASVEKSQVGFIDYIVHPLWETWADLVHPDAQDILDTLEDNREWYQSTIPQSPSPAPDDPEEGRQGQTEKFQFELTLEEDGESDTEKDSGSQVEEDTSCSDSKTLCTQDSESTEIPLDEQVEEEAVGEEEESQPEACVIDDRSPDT

3',5'-cyclic-AMP phosphodiesterase 4B, sequence (Q07343 whole entry): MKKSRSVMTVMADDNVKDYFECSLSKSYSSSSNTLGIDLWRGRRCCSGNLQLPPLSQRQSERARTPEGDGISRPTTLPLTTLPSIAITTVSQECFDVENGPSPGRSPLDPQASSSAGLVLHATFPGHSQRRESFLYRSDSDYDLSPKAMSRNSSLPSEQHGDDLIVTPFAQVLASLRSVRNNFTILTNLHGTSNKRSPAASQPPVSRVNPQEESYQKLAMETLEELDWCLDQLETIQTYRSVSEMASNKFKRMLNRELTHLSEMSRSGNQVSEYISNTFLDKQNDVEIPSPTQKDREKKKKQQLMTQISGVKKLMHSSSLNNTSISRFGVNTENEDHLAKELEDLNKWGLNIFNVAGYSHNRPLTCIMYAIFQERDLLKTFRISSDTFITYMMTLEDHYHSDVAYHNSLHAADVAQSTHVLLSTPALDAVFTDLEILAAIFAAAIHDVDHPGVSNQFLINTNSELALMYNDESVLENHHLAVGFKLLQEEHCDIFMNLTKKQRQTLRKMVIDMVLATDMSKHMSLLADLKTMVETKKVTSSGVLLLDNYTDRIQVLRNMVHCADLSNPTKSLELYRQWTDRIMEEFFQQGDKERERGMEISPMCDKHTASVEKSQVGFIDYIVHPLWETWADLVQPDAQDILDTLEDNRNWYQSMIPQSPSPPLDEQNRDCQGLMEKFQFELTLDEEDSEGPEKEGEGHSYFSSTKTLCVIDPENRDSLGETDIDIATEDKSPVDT

`O=C1c2c(-c3ccc(F)c(F)c3)c3ncccc3n2C[C@@H](CO)N1C1CC1`: the IC50 was less than 10 nM in experiment [1] and 10 nM in experiment [2].

Take `COc1ccc(-c2c3n(c4cc(F)cnc24)C[C@H](CO)N(C2CC2)C3=O)cn1`: the IC50 is less than 10 nM in experiment [1] and 10 nM in experiment [2].

For `C[C@@H]1Cn2c(c(-c3ccc(Cl)c(F)c3)c3ncccc32)C(=O)N1CCO`, the concentration for half-maximal inhibition (IC50) in experiment [1] and in experiment [2] was less than 10 nM throughout.

With `O=C1c2c(-c3ccc(Cl)c(F)c3)c3ncccc3n2C[C@H](CO)N1C1CC1`, the results for the IC50 in experiment [1] and in experiment [2] were less than 10 nM and 10 nM, respectively.

Regarding `N#Cc1ccc(-c2c3n(c4cccnc24)C[C@@H](CO)N(C2CC2)C3=O)cc1F`, the values for the IC50 in experiment [1] and in experiment [2] were less than 10 nM and 10 nM, respectively.

`O=C1c2c(-c3ccc(Cl)c(F)c3)c3ncccc3n2CCN1CCO`: the IC50 was less than 10 nM in experiment [1] and 10 nM in experiment [2].
